System: Male CD1 mice
Assay: Passive avoidance test following ECS-induced amnesia
Format: in vivo
Settings: i.p., 30 minutes before training, retention assessed 24 hours later
Experimental: In order to assess the antiamnesic activity the passive avoidance test in mice was used.
Male CD1 mice (Charles River) weighting 25-26 g fed on a normal diet were used for the ECS-induced amnesia test.
The compounds were administered i.p.at doses equimolar to 9 and 0.9 mg/kg […]. The compounds were dissolved in saline.
The apparatus for passive avoidance conditioning was a black plastic chamber (42 x 42 cm, height 40 cm) provided with a floor constructed of metal rods that could be electrified. From the front wall extended a white runway, 30 cm long and 10 cm wide provided with side walls 12 cm high, which led into the box through a guillotine door.
30 minutes following treatment with the compounds, the animals were placed on the runway. After one minute of adaptation, the door was raised and the time employed by the animal to enter the darkened box with all four feet was recorded.
Upon entry, the guillotine door was lowered and three seconds thereafter the rods were electrified, 0.24 mA for 2 seconds.
The mouse was then removed from the chamber and immediately administered an electroshock delivered through spring clips attached to the ears (square wave, intensity 20 mA, amplitude 0.6 msec, duration 0.5 s, frequency 50 Hz).
Immediately thereafter the animal was placed in the housing cage. Retention was assessed 24 hours later by placing the animal on the runway and again evaluating the latency in entering the chamber, using an end-point of 300 seconds (Bammer, loc.cit.).
In each experiment, two groups of animals in addition to the treated ones were used, that were defined as follows: • (1) ceiling control animals (treated with placebo and not subjected to amnesia treatment) to ensure that these animals not treated with the amnesia agent remembered the task; • (2) base-line control animals (treated with placebo and subjected to amnesia treatment) to ensure that ECS produced amnesia in the animals not treated with the compounds of the present invention.
The sum ΣAij encompasses all the possible pairs obtained by combining each term Xi with each term Xj.

[1] = dose equimolar to 0.9 mg/kg PIRACETAM
[2] = dose equimolar to 9 mg/kg PIRACETAM

Row | Structure (SMILES) | AR (percentage of amnesia reversal) [1] | AR (percentage of amnesia reversal) [2]
1 | O=CN[C@H]1CCNC1=O [ST 879, (S)-3-(formylamino)-2-pyrrolidinone] | 53% | 9%
2 | O=C(N[C@H]1CCNC1=O)c1cccc(C(F)(F)F)c1 [ST 835, (S)-3-(3-trifluoromethylbenzoylamino)-2-pyrrolidinone] | 51% | 58%
3 | N[C@H]1CCNC1=O [ST 802, (S)-3-amino-2-pyrrolidinone, reference compound] | 24% | –

— patent EP0519877B1, “3-Acylamino-2-pyrrolidinones as enhancers of the processes of learning and memory and pharmaceutical compositions containing same” (Sigma-Tau Industrie Farmaceutiche Riunite S.p.A., priority 1991, dated 1992)
